In patent US6462055B2, “Alpha-methylbenzyl-containing thiourea inhibitors of herpes viruses containing a phenylenediamine group” (Wyeth, priority 1998, dated 2002):
Values after ≈ are worked out from the molar mass of the structure shown.

Test system: VZV strain Ellen
Test: VZV Antiviral (ELISA) Assay in human foreskin fibroblast cells
Assay type: cell-based, varicella-zoster virus
Conditions: not given
Procedure, shortened: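 Antiviral IC50 is derived by comparing fluorescence with and without compound after a three-day culture of VZV-infected plus uninfected foreskin fibroblasts. Replication is quantified by ELISA against glycoprotein II, using a β-galactosidase secondary and methyl umbelliferyl-β-D-galactoside.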

SMILES | IC50 (ug/ml) VZV [µg/mL]
COc1cc(C)c(Cl)cc1NC(=S)Nc1ccc(NC(=O)c2c(F)cccc2F)cc1 [Example 333] | 4.5 (≈ 9.74 µM)
CN1CCC(N(C)c2ccc(NC(=S)Nc3ccc(NC(=O)c4c(F)cccc4F)cc3)cc2Cl)CC1 [Example 340] | 4 (≈ 7.35 µM)
CSc1ccc(NC(=S)Nc2ccc(NC(=O)c3ccccc3C)cc2)cc1Cl [Example 342] | >10
Cc1ccccc1C(=O)Nc1ccc(NC(=S)Nc2ccc(N(C)C)c(Cl)c2)cc1 [Example 346] | >10
CN(C)c1ccc(NC(=S)Nc2ccc(NC(=O)c3c(F)cccc3F)cc2)cc1Cl [Example 348] | 8 (≈ 17.4 µM)
CN1CCC(N(C)c2ccc(NC(=S)Nc3ccc(NC(=O)c4c(F)cccc4F)cc3)cc2Cl)C1 (stereo not shown) [Example 349] | 4 (≈ 7.55 µM)
COc1cc(OC)c(NC(=S)Nc2ccc(NC(=O)c3ccccc3F)cc2Cl)cc1Cl [Example 355] | >10
O=C(Nc1ccc(NC(=S)Nc2ccc(SC3CCCCC3)c(Cl)c2)cc1)c1ccccc1F [Example 357] | 40 (≈ 77.8 µM)
CN(C)CC(=O)Nc1ccc(NC(=S)Nc2ccc(NC(=O)c3ccccc3F)cc2)cc1Cl [Example 362] | >10
O=C(CN1CCCCC1)Nc1ccc(NC(=S)Nc2ccc(NC(=O)c3ccccc3F)cc2)cc1Cl [Example 364] | >15
O=C(CN1CCOCC1)Nc1ccc(NC(=S)Nc2ccc(NC(=O)c3ccccc3F)cc2)cc1Cl [Example 367] | >10
CS(=O)(=O)Nc1ccc(NC(=S)Nc2ccc(NC(=O)c3ccccc3F)cc2)cc1Cl [Example 370] | >10
CN(C)CCSCC(=O)Nc1ccc(NC(=S)Nc2ccc(NC(=O)c3ccccc3F)cc2)cc1Cl [Example 373] | >10
Cc1ccccc1C(=O)Nc1ccc(NC(=S)Nc2ccc(N(C)C3CCN(Cc4ccccc4)C3)c(Cl)c2)cc1 (stereo not shown) [Example 374] | 4 (≈ 6.85 µM)
Cc1ccccc1C(=O)Nc1ccc(NC(=S)Nc2ccc(N(C)C3CCN(C)CC3)c(Cl)c2)cc1 [Example 375] | 7 (≈ 13.4 µM)
O=C(Nc1ccc(NC(=S)Nc2ccc(Cl)c(C(F)(F)F)c2)cc1)c1c(F)cccc1F [Example 380] | >10
CCSc1ccc(NC(=S)Nc2ccc(NC(=O)c3ccccc3F)cc2)cc1Cl [Example 386] | >10
CCCCSc1ccc(NC(=S)Nc2ccc(NC(=O)c3ccccc3F)cc2)cc1Cl [Example 387] | >10
CS(=O)(=O)c1ccc(NC(=S)Nc2ccc(NC(=O)c3c(F)cccc3F)cc2)cc1Cl [Example 392] | 2 (≈ 4.03 µM)

Same assay, conditions: 10 ug/ml

SMILES | % inhibition 10 ug/ml VZV [%]
COc1cc(C)c(Cl)cc1NC(=S)Nc1ccc(NC(=O)c2c(F)cccc2F)cc1 [Example 333] | 92
CN1CCC(N(C)c2ccc(NC(=S)Nc3ccc(NC(=O)c4c(F)cccc4F)cc3)cc2Cl)CC1 [Example 340] | 99
CSc1ccc(NC(=S)Nc2ccc(NC(=O)c3ccccc3C)cc2)cc1Cl [Example 342] | 62
Cc1ccccc1C(=O)Nc1ccc(NC(=S)Nc2ccc(N(C)C)c(Cl)c2)cc1 [Example 346] | 62
CN(C)c1ccc(NC(=S)Nc2ccc(NC(=O)c3c(F)cccc3F)cc2)cc1Cl [Example 348] | 95
CN1CCC(N(C)c2ccc(NC(=S)Nc3ccc(NC(=O)c4c(F)cccc4F)cc3)cc2Cl)C1 (stereo not shown) [Example 349] | 110
COc1cc(OC)c(NC(=S)Nc2ccc(NC(=O)c3ccccc3F)cc2Cl)cc1Cl [Example 355] | 40
O=C(Nc1ccc(NC(=S)Nc2ccc(SC3CCCCC3)c(Cl)c2)cc1)c1ccccc1F [Example 357] | 44
CN(C)CC(=O)Nc1ccc(NC(=S)Nc2ccc(NC(=O)c3ccccc3F)cc2)cc1Cl [Example 362] | 8
O=C(CN1CCCCC1)Nc1ccc(NC(=S)Nc2ccc(NC(=O)c3ccccc3F)cc2)cc1Cl [Example 364] | 73
O=C(CN1CCOCC1)Nc1ccc(NC(=S)Nc2ccc(NC(=O)c3ccccc3F)cc2)cc1Cl [Example 367] | 20
CS(=O)(=O)Nc1ccc(NC(=S)Nc2ccc(NC(=O)c3ccccc3F)cc2)cc1Cl [Example 370] | 16
CN(C)CCSCC(=O)Nc1ccc(NC(=S)Nc2ccc(NC(=O)c3ccccc3F)cc2)cc1Cl [Example 373] | 4
Cc1ccccc1C(=O)Nc1ccc(NC(=S)Nc2ccc(N(C)C3CCN(Cc4ccccc4)C3)c(Cl)c2)cc1 (stereo not shown) [Example 374] | 70
Cc1ccccc1C(=O)Nc1ccc(NC(=S)Nc2ccc(N(C)C3CCN(C)CC3)c(Cl)c2)cc1 [Example 375] | 95
O=C(Nc1ccc(NC(=S)Nc2ccc(Cl)c(C(F)(F)F)c2)cc1)c1c(F)cccc1F [Example 380] | 50
CCSc1ccc(NC(=S)Nc2ccc(NC(=O)c3ccccc3F)cc2)cc1Cl [Example 386] | 29
CCCCSc1ccc(NC(=S)Nc2ccc(NC(=O)c3ccccc3F)cc2)cc1Cl [Example 387] | 26
CS(=O)(=O)c1ccc(NC(=S)Nc2ccc(NC(=O)c3c(F)cccc3F)cc2)cc1Cl [Example 392] | 92

Test system: HCMV recombinant mutant virus (RV145)
Test: microbe, parasite or virus in culture
Assay type: cell-based, human cytomegalovirus
Conditions: HCMV
Procedure, shortened: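 Human foreskin fibroblasts infected with HCMV RV145 carrying a viral-promoter-driven beta-glucuronidase gene, in presence of compound. At 96 h post-infection, lysates assayed for beta-glucuronidase with colorimetric or fluorogenic glucuronide substrate as replication read-out. IC50 estimated from varying inhibitor amounts.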

SMILES | IC50 ug/ml HCMV [µg/mL]
COc1cc(C)c(Cl)cc1NC(=S)Nc1ccc(NC(=O)c2c(F)cccc2F)cc1 [Example 333] | 2.5 (≈ 5.41 µM)
CN1CCC(N(C)c2ccc(NC(=S)Nc3ccc(NC(=O)c4c(F)cccc4F)cc3)cc2Cl)CC1 [Example 340] | 0.25 (≈ 0.459 µM)
CSc1ccc(NC(=S)Nc2ccc(NC(=O)c3ccccc3C)cc2)cc1Cl [Example 342] | 1.4 (≈ 3.17 µM)
Cc1ccccc1C(=O)Nc1ccc(NC(=S)Nc2ccc(N(C)C)c(Cl)c2)cc1 [Example 346] | 2 (≈ 4.56 µM)
CN(C)c1ccc(NC(=S)Nc2ccc(NC(=O)c3c(F)cccc3F)cc2)cc1Cl [Example 348] | 0.8 (≈ 1.74 µM)
CN1CCC(N(C)c2ccc(NC(=S)Nc3ccc(NC(=O)c4c(F)cccc4F)cc3)cc2Cl)C1 (stereo not shown) [Example 349] | 1.2 (≈ 2.26 µM)
COc1cc(OC)c(NC(=S)Nc2ccc(NC(=O)c3ccccc3F)cc2Cl)cc1Cl [Example 355] | >10
O=C(Nc1ccc(NC(=S)Nc2ccc(SC3CCCCC3)c(Cl)c2)cc1)c1ccccc1F [Example 357] | 9 (≈ 17.5 µM)
CN(C)CC(=O)Nc1ccc(NC(=S)Nc2ccc(NC(=O)c3ccccc3F)cc2)cc1Cl [Example 362] | >10
O=C(CN1CCCCC1)Nc1ccc(NC(=S)Nc2ccc(NC(=O)c3ccccc3F)cc2)cc1Cl [Example 364] | >10
O=C(CN1CCOCC1)Nc1ccc(NC(=S)Nc2ccc(NC(=O)c3ccccc3F)cc2)cc1Cl [Example 367] | >10
CS(=O)(=O)Nc1ccc(NC(=S)Nc2ccc(NC(=O)c3ccccc3F)cc2)cc1Cl [Example 370] | >10
CN(C)CCSCC(=O)Nc1ccc(NC(=S)Nc2ccc(NC(=O)c3ccccc3F)cc2)cc1Cl [Example 373] | 6 (≈ 10.7 µM)
Cc1ccccc1C(=O)Nc1ccc(NC(=S)Nc2ccc(N(C)C3CCN(Cc4ccccc4)C3)c(Cl)c2)cc1 (stereo not shown) [Example 374] | 3 (≈ 5.14 µM)
Cc1ccccc1C(=O)Nc1ccc(NC(=S)Nc2ccc(N(C)C3CCN(C)CC3)c(Cl)c2)cc1 [Example 375] | 1.5 (≈ 2.87 µM)
O=C(Nc1ccc(NC(=S)Nc2ccc(Cl)c(C(F)(F)F)c2)cc1)c1c(F)cccc1F [Example 380] | >10
CCSc1ccc(NC(=S)Nc2ccc(NC(=O)c3ccccc3F)cc2)cc1Cl [Example 386] | 2 (≈ 4.35 µM)
CCCCSc1ccc(NC(=S)Nc2ccc(NC(=O)c3ccccc3F)cc2)cc1Cl [Example 387] | >10
CS(=O)(=O)c1ccc(NC(=S)Nc2ccc(NC(=O)c3c(F)cccc3F)cc2)cc1Cl [Example 392] | 0.5 (≈ 1.01 µM)

Test system: HSV-1
Test: HSV Antiviral (ELISA) Assay in Vero cells
Assay type: cell-based, herpes simplex virus type 1
Conditions: HSV-1, Vero cells
Procedure, shortened: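 Viral replication was quantified by cell-fixed ELISA for HSV glycoprotein D, using a β-galactosidase reporter and fluorogenic umbelliferyl substrate, about 24 h after HSV-1 infection (MOI 0.006) of Vero cells. Compounds, at several concentrations, were added 30 min pre-infection. IC50 was derived from fluorescence relative to the compound-free signal.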

SMILES | IC50 (ug/ml) HSV [µg/mL]
COc1cc(C)c(Cl)cc1NC(=S)Nc1ccc(NC(=O)c2c(F)cccc2F)cc1 [Example 333] | 0.04 (≈ 0.0866 µM)
CN1CCC(N(C)c2ccc(NC(=S)Nc3ccc(NC(=O)c4c(F)cccc4F)cc3)cc2Cl)CC1 [Example 340] | 3 (≈ 5.51 µM)
CSc1ccc(NC(=S)Nc2ccc(NC(=O)c3ccccc3C)cc2)cc1Cl [Example 342] | 0.2 (≈ 0.452 µM)
Cc1ccccc1C(=O)Nc1ccc(NC(=S)Nc2ccc(N(C)C)c(Cl)c2)cc1 [Example 346] | 6 (≈ 13.7 µM)
CN(C)c1ccc(NC(=S)Nc2ccc(NC(=O)c3c(F)cccc3F)cc2)cc1Cl [Example 348] | 4 (≈ 8.68 µM)
CN1CCC(N(C)c2ccc(NC(=S)Nc3ccc(NC(=O)c4c(F)cccc4F)cc3)cc2Cl)C1 (stereo not shown) [Example 349] | 5 (≈ 9.43 µM)
COc1cc(OC)c(NC(=S)Nc2ccc(NC(=O)c3ccccc3F)cc2Cl)cc1Cl [Example 355] | 0.035 (≈ 0.0708 µM)
O=C(Nc1ccc(NC(=S)Nc2ccc(SC3CCCCC3)c(Cl)c2)cc1)c1ccccc1F [Example 357] | >10
CN(C)CC(=O)Nc1ccc(NC(=S)Nc2ccc(NC(=O)c3ccccc3F)cc2)cc1Cl [Example 362] | >10
O=C(CN1CCCCC1)Nc1ccc(NC(=S)Nc2ccc(NC(=O)c3ccccc3F)cc2)cc1Cl [Example 364] | >10
O=C(CN1CCOCC1)Nc1ccc(NC(=S)Nc2ccc(NC(=O)c3ccccc3F)cc2)cc1Cl [Example 367] | >10
CS(=O)(=O)Nc1ccc(NC(=S)Nc2ccc(NC(=O)c3ccccc3F)cc2)cc1Cl [Example 370] | >10
CN(C)CCSCC(=O)Nc1ccc(NC(=S)Nc2ccc(NC(=O)c3ccccc3F)cc2)cc1Cl [Example 373] | 9 (≈ 16.1 µM)
Cc1ccccc1C(=O)Nc1ccc(NC(=S)Nc2ccc(N(C)C3CCN(Cc4ccccc4)C3)c(Cl)c2)cc1 (stereo not shown) [Example 374] | 3 (≈ 5.14 µM)
Cc1ccccc1C(=O)Nc1ccc(NC(=S)Nc2ccc(N(C)C3CCN(C)CC3)c(Cl)c2)cc1 [Example 375] | 5 (≈ 9.58 µM)
O=C(Nc1ccc(NC(=S)Nc2ccc(Cl)c(C(F)(F)F)c2)cc1)c1c(F)cccc1F [Example 380] | >10
CCSc1ccc(NC(=S)Nc2ccc(NC(=O)c3ccccc3F)cc2)cc1Cl [Example 386] | >10
CCCCSc1ccc(NC(=S)Nc2ccc(NC(=O)c3ccccc3F)cc2)cc1Cl [Example 387] | >10
CS(=O)(=O)c1ccc(NC(=S)Nc2ccc(NC(=O)c3c(F)cccc3F)cc2)cc1Cl [Example 392] | >10
